Measured values as given in ChEMBL document CHEMBL1125481, “N-[4-[[(3,4-dihydro-4-oxo-1,2,3-benzotriazin-6-yl)methyl]amino]benzoyl]-L-glutamic acid, a novel A-ring analogue of 2-desamino-5,8-dideazafolic acid” (J Med Chem, 1992).

Key:
[1] = target: Thymidylate synthase (Mus musculus) (UniProt P07607); assay: Binding affinity towards thymidylate synthase (TS)
[2] = tested on: L1210; assay: Growth inhibitory activity on L1210 cell culture in the presence of 32 uM hypoxanthine (Hx); assay type: functional, cell-based; conditions: Mus musculus
[3] = target: Thymidylate synthase (Mus musculus, UniProt P07607); assay: Compound was tested for the inhibition of recombinant mouse thymidylate synthase, competitive with 5,10-methylenetetrahydrofolate as variable substrate
Sequence of Thymidylate synthase (P07607 whole entry): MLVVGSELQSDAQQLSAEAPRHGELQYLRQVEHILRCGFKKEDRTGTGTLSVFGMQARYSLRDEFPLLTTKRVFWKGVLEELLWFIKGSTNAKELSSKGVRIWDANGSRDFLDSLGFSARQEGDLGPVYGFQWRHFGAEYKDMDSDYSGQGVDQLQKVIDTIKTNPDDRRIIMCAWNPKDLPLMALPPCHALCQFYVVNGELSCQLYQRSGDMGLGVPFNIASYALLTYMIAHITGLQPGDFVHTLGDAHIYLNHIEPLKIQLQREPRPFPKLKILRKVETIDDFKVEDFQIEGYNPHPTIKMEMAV

[4] = tested on: L1210; assay: Growth inhibitory activity on mouse L1210 cell culture; assay type: functional, cell-based
[5] = tested on: L1210; assay: Growth inhibitory activity on L1210 cell culture in the presence of 5.6 uM thymidine(dThd); assay type: functional, cell-based; conditions: Mus musculus
[6] = substrate: O=C(O)CCC(NC(=O)c1ccc(NCc2ccc3ncnc(O)c3c2)cc1)C(=O)O; assay: (§1) Kinetic characteristic of compound for mouse liver FPGS(in vitro)
[7] = substrate: Nc1nc(O)c2cc(CNc3ccc(C(=O)NC(CCC(=O)O)C(=O)O)cc3)ccc2n1; assay: as §1
[8] = substrate: O=C(O)CCC(NC(=O)c1ccc(NCc2ccc3nnnc(O)c3c2)cc1)C(=O)O

Sequence of Thymidylate synthase (Mus musculus) (P07607 whole entry, looked up): as the sequence (P07607 whole entry) above

O=C(O)CCC(NC(=O)c1ccc(NCc2ccc3nnnc(O)c3c2)cc1)C(=O)O (stereo not given)
Ki [1]: 2300 nM
IC50 [2]: 970 nM
Ki [3]: 2300 nM
IC50 [4]: 520 nM
IC50 [5]: 890 nM

O=C(O)CCC(NC(=O)c1ccc(NCc2ccc3ncnc(O)c3c2)cc1)C(=O)O (stereo not given)
IC50 [4]: 430 nM

Nc1nc(O)c2cc(CNc3ccc(C(=O)NC(CCC(=O)O)C(=O)O)cc3)ccc2n1 (stereo not given) [DIDEAZAFOLATE]
IC50 [4]: 2700 nM

B1: Folylpolyglutamate synthase, mitochondrial (Mus musculus), P48760 (protein)
chain: MSWARSRLCSTLSLAAVSARGATTEGAARRGMSAWPAPQEPGMEYQDAVRTLNTLQTNASYLEQVKRQRSDPQAQLEAMEMYLARSGLQVEDLNRLNIIHVTGTKGKGSTCAFTERILRNYGLKTGFFSSPHMVQVRERIRINGKPISPELFTKHFWCLYNQLEEFKDDSHVSMPSYFRFLTLMAFHVFLQEKVDLAVVEVGIGGAFDCTNIIRKPVVCGVSSLGIDHTSLLGDTVEKIAWQKGGIFKPGVPAFTVVQPEGPLAVLRDRAQQIGCPLYLCPPLEALEEVGLPLSLGLEGAHQRSNAALALQLAHCWLERQDHQDIQELKVSRPSIRWQLPLAPVFRPTPHMRRGLRDTVWPGRTQILQRGPLTWYLDGAHTTSSVQACVHWYRQSLERSKRTDGGSEVHILLFNSTGDRDSAALLKLLQPCQFDYAVFCPNVTEVSSIGNADQQNFTVTLDQVLLRCLQHQQHWNGLAEKQASSNLWSSCGPDPAGPGSLLLAPHPPQPTRTSSLVFSCISHALLWISQGRDPIFQPQSLPRNLLNHPTANSGASILREAAAIHVLVTGSLHLVGGVLKLLDPSMSQ
Km [6]: 4.8 µM
Km [7]: 6.4 µM
Km [8]: 28 µM
